Results as given in US20060063759A1, “Tricyclic steroid hormone nuclear receptor modulators” (priority 2002, published 2006).
Like-named read-outs stand apart in the source and are kept apart here.

Columns and labels:
human MR = molecular target: T1, human MR (Homo sapiens, UniProt P08235); assay: Mineralocorticoid Receptor Binding Assay ([3H]-aldosterone)
T1 construct: The full length human MR gene is cloned from a human kidney or human brain cDNA library; His tag from the pAcHLT vector (own knowledge); made in house; host or cells: Sf9 insect cells (baculovirus, pAcHLT transfer vector)
T1 sequence (P08235 1-984): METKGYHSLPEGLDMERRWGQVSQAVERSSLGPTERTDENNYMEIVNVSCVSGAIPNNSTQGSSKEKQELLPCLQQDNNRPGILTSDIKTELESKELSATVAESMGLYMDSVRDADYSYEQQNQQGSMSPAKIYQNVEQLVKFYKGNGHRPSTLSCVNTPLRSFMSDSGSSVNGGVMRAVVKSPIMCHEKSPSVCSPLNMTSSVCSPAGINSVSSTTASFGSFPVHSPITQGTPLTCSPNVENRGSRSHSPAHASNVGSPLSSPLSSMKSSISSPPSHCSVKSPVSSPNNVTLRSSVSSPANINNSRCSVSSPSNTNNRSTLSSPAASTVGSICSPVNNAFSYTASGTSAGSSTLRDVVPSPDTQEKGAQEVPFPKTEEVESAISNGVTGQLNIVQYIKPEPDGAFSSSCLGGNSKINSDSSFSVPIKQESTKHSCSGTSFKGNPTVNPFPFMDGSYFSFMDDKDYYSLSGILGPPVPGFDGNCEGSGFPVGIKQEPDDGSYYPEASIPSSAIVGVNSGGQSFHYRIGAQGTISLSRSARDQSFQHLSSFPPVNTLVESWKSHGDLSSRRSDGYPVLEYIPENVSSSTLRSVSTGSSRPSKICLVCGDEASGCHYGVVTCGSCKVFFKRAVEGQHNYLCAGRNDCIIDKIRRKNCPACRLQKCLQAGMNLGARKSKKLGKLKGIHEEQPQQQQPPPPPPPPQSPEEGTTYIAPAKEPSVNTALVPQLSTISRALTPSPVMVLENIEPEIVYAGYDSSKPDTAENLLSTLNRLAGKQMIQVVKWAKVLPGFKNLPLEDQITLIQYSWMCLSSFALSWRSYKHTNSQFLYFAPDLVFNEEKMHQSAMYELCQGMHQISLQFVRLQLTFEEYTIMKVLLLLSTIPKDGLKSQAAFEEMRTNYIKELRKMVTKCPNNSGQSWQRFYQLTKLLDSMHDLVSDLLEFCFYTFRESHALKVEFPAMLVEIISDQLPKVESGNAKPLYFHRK
Description: (§1) All ligands, radioligands, solvents, and reagents employed in the binding assays are readily available from commercial sources, or can be readily synthesized by the ordinarily skilled artisan.
The full length human MR gene is cloned from a human kidney or human brain cDNA library. […] The PCR reaction is performed in a final volume of 50 μl containing about 1 μl of a 50× stock solution of polymerase; about 1 μl of a 50× stock solution of dNTP; about 5 μl of an appropriate PCR buffer; about 1 μl of each primer; about […] of a H. kidney or H. brain cDNA library; and about 36 μl of water. The reaction is allowed to denature for about 30 seconds at 95 degrees Celsius, anneal for about 30 seconds at 55 degrees Celsius, and extend for about 5 minutes at 72 degrees Celsius, the sequence being repeated for a total of about 35 cycles. […] To extract the cDNA product from the agarose gel, the QIAEX II Gel Extraction protocol (QIAGEN, Inc.) is employed according to the manufacturer's instructions. Following extraction, the MR cDNA is cloned into an appropriate cloning vector (Zero Blunt TOPO PCR Cloning Kit Invitrogen, Inc.) and a pAcHLT-baculovinis transfer vector (B.D./Pharminogen), then expressed in SF9 insect cells, essentially according to manufacturer's instructions. Sf9 cells are grown at a scale where gram quantity cell pellets are obtained for subsequent use in the MR binding assay. Harvested cell pellets are lysed by repeated freeze-thaw cycles (about 4) in a suitable lysis buffer then centrifuged at about 1×10^3 G (with the supernatant being saved for future assays).
MR binding assays are performed in a final total volume of about 250 μl containing about 20-25 μg of protein and 0.5 nM of [^3H]-aldosterone plus varying concentrations of test compound or vehicle. The assay binding buffer consists of 30 mM sodium molybdate, 30 mM of TRIS-HCl, 5 mM sodium phosphate, 5 mM sodium pyrophosphate, and about 10% glycerol, pH=7.5.
Incubations are carried out at 4 degrees Celsius with shaking for about 16 hours. 200 μl aliquots of each incubation are filtered onto Millipore HA 0.45 micron 96-well filter plates, pre-moistened with cold 30 mM TRIS-HCl. The filter plates are suctioned dry with vacuum and immediately washed 3× with cold 30 mM TRIS-HCl. The plates are then punched out and the amount of receptor-ligand complex is determined by liquid scintillation counting using 4 ml of Ready Protein Plus™ liquid scintillation cocktail.
IC50 values (defined as the concentration of test compound required to decrease [^3H]-aldosterone binding by 50%/o) are then determined.

glucocorticoid receptor = molecular target: T2, glucocorticoid receptor (Homo sapiens, UniProt P04150); assay: Glucocorticoid Receptor Binding Assay ([3H]-dexamethasone, A549 cell extract); details: [3H]-dexamethasone binding, read-out: GR Ki
T2 construct: containing 50-200 ug of A549 cell extract and 1.86 nM [^3H]-dexamethasone; host or cells: A549 human lung epithelial cells (sonicated cell extract)
T2 sequence (P04150 1-777): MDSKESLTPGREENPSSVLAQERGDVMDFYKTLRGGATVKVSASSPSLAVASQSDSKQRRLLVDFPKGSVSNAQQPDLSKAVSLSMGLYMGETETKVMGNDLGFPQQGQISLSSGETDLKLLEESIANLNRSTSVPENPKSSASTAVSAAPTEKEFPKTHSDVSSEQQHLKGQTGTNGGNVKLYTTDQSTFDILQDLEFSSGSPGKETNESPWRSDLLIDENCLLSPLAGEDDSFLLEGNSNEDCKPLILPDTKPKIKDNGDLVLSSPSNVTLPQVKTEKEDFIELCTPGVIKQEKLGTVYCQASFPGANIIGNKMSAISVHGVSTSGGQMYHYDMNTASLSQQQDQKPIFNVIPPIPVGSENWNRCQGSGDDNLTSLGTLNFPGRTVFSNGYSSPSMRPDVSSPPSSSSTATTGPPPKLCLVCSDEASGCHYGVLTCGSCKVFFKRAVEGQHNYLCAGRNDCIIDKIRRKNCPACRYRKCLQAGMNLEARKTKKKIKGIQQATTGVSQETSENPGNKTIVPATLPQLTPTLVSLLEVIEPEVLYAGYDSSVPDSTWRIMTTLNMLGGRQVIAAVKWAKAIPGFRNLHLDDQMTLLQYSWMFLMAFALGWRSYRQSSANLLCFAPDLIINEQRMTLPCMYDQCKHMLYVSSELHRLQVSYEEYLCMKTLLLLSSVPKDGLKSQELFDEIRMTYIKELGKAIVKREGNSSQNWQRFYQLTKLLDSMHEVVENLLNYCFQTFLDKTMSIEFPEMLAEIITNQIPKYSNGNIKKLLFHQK
Description: as §1
A549 human lung epithelial cells (ATCC) are grown at a scale where gram quantity cell pellets are obtained. Harvested cell pellets are washed twice in cold phosphate buffered saline, centrifuged, and resuspended in cold assay binding buffer. The assay binding buffer consists of 10% glycerol, 50 mM Tris-HCl (pH7.2), 75 mM sodium chloride, 1.5 mM magnesium chloride, 1.5 mM EDTA, and 10 mM sodium molybdate. Cell suspensions were lysed via sonication, centrifuged, and the “extract” supernatant is snap frozen and stored at −80 C until needed.
GR binding assays are performed in a final volume of 140 ul containing 50-200 ug of A549 cell extract and 1.86 nM [^3H]-dexamethasone (Amersham) plus varying concentrations of test compound or vehicle. Briefly, assays are prepared at RT in 96-well Fisher 3356 plates, each well containing 100 ul of A549 cell extract, 20 ul of [^3H]-dexamethasone, and 20 ul of test compound/vehicle. Incubations are carried out at 4 degrees Celsius for 16 hours. After incubation, 70 ul of 3× dextran-coated charcoal solution is added to each reaction, mixed, and incubated for 8 minutes at RT. 3×-dextran-coated charcoal solution consists of 250 ml assay binding buffer, 3.75 g Norit A charcoal (Sigma), and 1.25 g dextran T-70 (Amersham). Charcoal/unbound radioligand complexes are removed by centrifugation of the plate and 140 ul of supernatant from each well is transferred to another 96 well Optiplate (Packard Instruments). 200 ul of Microscint-20 scinillant (Packard Instruments) is added to each well and amount of receptor bound radioligand is determined using Packard Instruments TopCount instrument.

[1] = [3H]-aldosterone binding, human MR expressed in Sf9 cells, read-out: MR Ki

Compound	Ki (human MR; [1]) [nM]	Ki (glucocorticoid receptor) [nM]	Ki (human MR) [nM]
COc1ccc2c(c1)CCc1ccccc1C2=Cc1ccc(N)cc1 (mixture of isomers) [Example 166, 4-(2-Methoxy-10,11-dihydro-dibenzo[a,d]cyclohepten-5-ylidenemethyl)-phenylamine]	< 500	< 10000	
COc1ccc2c(c1)CCc1ccccc1C2=Cc1ccc(O)cc1 (mixture of isomers) [Example 168, 4-(2-Methoxy-10,11-dihydro-dibenzo[a,d]cyclohepten-5-ylidenemethyl)-phenol]		< 1000	< 500
CS(=O)(=O)Nc1ccc(C=C2c3ccccc3CCc3c(Cl)cccc32)cc1 (mixture of isomers) [Example 210, N-[4-(1-Chloro-10,11-dihydro-dibenzo[a,d]cyclohepten-5ylidenemethyl)-phenyl]-methanesulfonamide]	< 500	< 1000	
O=[N+]([O-])c1cccc(/C=C2/c3ccccc3OCc3c(Cl)cccc32)c1 [Example 272, 7-Chloro-11-(3-nitro-benzylidene)-6,11-dihydro-dibenzo[b,e]oxepine]		< 10000	
CS(=O)(=O)Nc1cccc(/C=C2\c3ccccc3CCc3ccc(S(C)(=O)=O)cc32)c1 [Example 324]		< 1000	
O=c1[nH]c2ccc(/C=C3/c4ccccc4COc4cc(F)ccc43)cc2[nH]1 [Example 631]		< 1000	
COc1cccc2c1SCc1ccccc1C2=Cc1cccc(NS(C)(=O)=O)c1 [Example 686]		< 500	
CCNC(=O)Nc1cccc(C=C2c3ccccc3CSc3c(C)cccc32)c1 [Example 689]		< 500	
O=S(=O)(Nc1cccc(/C=C2\c3ccccc3CSc3ccccc32)c1)c1ccc(Cl)c(Cl)c1 [Example 690]		< 1000	
CS(=O)(=O)Nc1cccc(C(C(=O)O)=C2c3ccccc3CCc3ccccc32)c1 [Example 754, (10,11-Dihydro-dibenzo[a,d]cyclohepten-5-ylidene)-(3-methanesulfonylamino-phenyl)-acetic acid]		< 500	

The next lines start with results.

Ki (human MR; [1]) [nM]	Ki (glucocorticoid receptor) [nM]	Compound	Ki (human MR) [nM]
< 500	< 500	CS(=O)(=O)Nc1cccc(C=C2c3ccccc3CCc3cc(O)ccc32)c1 (mixture of isomers) [Example 162, N-[3-(2-Hydroxy-10,11-dihydro-dibenzo[a,d]cyclohepten-5-ylidenemethyl)-phenyl]-methanesulfonamide]	
< 500	< 500	CCS(=O)(=O)Nc1cccc(C=C2c3ccccc3CCc3cc(OC)ccc32)c1 (mixture of isomers) [Example 163, Ethanesulfonic acid [3-(2-methoxy-10,11-dihydro-dibenzo[a,d]cyclohepten-5-ylidenemethyl)-phenyl]-amide]	
< 500	< 500	COc1ccc2c(c1)CCc1ccccc1C2=Cc1cccc(O)c1 (mixture of isomers) [Example 167, 3-(2-Methoxy-10,11-dihydro-dibenzo[a,d]cyclohepten-5-ylidenemethyl)-phenol]	
< 500	< 500	Oc1ccc(C=C2c3ccccc3CCc3cc(O)ccc32)cc1 (mixture of isomers) [Example 169, 5-(4-Hydroxy-benzylidene)-10,11-dihydro-5H-dibenzo[a,d]cyclohepten-2-ol]	
< 500	< 500	CS(=O)(=O)Nc1cccc(C=C2c3ccccc3CCc3cc(O)c(O)cc32)c1 (mixture of isomers) [Example 171, N-[3-(2,3-Dihydroxy-10,11-dihydro-dibenzo[a,d]cyclohepten-5-ylidenemethyl)-phenyl]-methanesulfonamide]	
< 500	< 500	CS(=O)(=O)Nc1cccc(C=C2c3ccccc3CCc3c(Cl)cccc32)c1 (mixture of isomers) [Example 205(a), N-[3-(1-Chloro-10,11-dihydro-dibenzo[a,d]cyclohepten-5-ylidenemethyl)-phenyl]-methanesulfonamide]	
< 500	< 500	CCS(=O)(=O)Nc1cccc(C=C2c3ccccc3CCc3c(Cl)cccc32)c1 (mixture of isomers) [Example 208(a), Ethanesulfonic acid [3-(1-chloro-10,11-dihydro-dibenzo[a,d]cyclohepten-5-ylidenemethyl)-phenyl]-amide]	
	< 500	CCOc1ccc2c(c1)CCc1ccccc1C2=Cc1cccc(NS(C)(=O)=O)c1 [Example 331]	
	< 500	CCCOc1ccc2c(c1)CCc1ccccc1C2=Cc1cccc(NS(C)(=O)=O)c1 [Example 332]	
